Assays:
[1] = Solvency of solvents for (S)-Equol (visual solubility after storage); details: solute (S)-Equol, 6% test solution, approximately 1:16 solute to solvent ratio, soluble = no visible crystals
Protocol: (§1) In the testing provided below, “soluble” (or “solubilize”), in relation to the solubility of a solid solute being tested, means that no visible crystals may be seen after a prescribed storage period at a storage condition. The storage period can vary. Suitable storage periods include about 24 hours, about 1 week, and about 30 days. Suitable storage conditions include ambient conditions or cold storage at 5° C. (approximately 1 atm). In certain embodiments, solubility may be determined after a 24 hour storage period at ambient conditions. In other embodiments, solubility may be determined after 20 days in cold storage. Other testing parameters may include storage for prolonged time periods (e.g., 30 day, 50 days, 60 days, 90 days) and at variable temperatures (e.g., 5° C., 50° C.).
(§2) The solvency of an isosorbide diester within the scope of the present invention was tested against two conventional, industry standard solvents. […] A test solution was of 6% Equol is prepared with heating to 70° C. Upon reaching 70° C., the examples may be mixed for about 10 minutes. Place mixtures in a covered vial and cool to the storage temperature. Solubility is evaluated for samples stored 24 hours at ambient conditions. Solubility is also evaluated for samples stored for 7 day at 5° C. followed by equilibration to ambient conditions.

[2] = Solvency of solvents for hexylresorcinol (visual solubility after storage); details: solute hexylresorcinol, 33.5% test solution, approximately 1:2 solute to solvent ratio, soluble = no visible crystals
Protocol: as §1
as §2, with “solution” for “solution was”, “33.5% hexylresorcinol” for “6% Equol”

[3] = Solvency of solvents for tetrahydrocurcuminoids (THC) (visual solubility after storage); details: solute tetrahydrocurcuminoids (THC), 3% test solution, approximately 1:32 solute to solvent ratio, soluble = no visible crystals
[4] = then equilibration to ambient conditions

CCCCCCCCCCCC(=O)N(C)CC(=O)OC(C)C [Isopropyl lauroyl sarcosinate, isopropyl lauroyl sarcosinate]
Soluble: Solubility, 24 hour rest at Ambient Conditions ([1]; prepared at 70° C.) | Solubility, 7 day storage at 5° C. [1, 4] | Solubility, 24 hour rest at Ambient Conditions ([2]; prepared at 70° C.) | Solubility, 7 day storage at 5° C. [2, 4] | Solubility, 24 hour rest at Ambient Conditions ([3]; prepared at 70° C.) | Solubility, 7 day storage at 5° C. [3, 4]

Source: patent US20130011347A1, “Personal Care Compositions With Improved Solubility of a Solid Cosmetic Active” (priority 2011, published 2013)
